The target in assay [1] is T1, MYLK4 (Homo sapiens, UniProt Q86YV6).
T1 sequence (Q86YV6 1-388): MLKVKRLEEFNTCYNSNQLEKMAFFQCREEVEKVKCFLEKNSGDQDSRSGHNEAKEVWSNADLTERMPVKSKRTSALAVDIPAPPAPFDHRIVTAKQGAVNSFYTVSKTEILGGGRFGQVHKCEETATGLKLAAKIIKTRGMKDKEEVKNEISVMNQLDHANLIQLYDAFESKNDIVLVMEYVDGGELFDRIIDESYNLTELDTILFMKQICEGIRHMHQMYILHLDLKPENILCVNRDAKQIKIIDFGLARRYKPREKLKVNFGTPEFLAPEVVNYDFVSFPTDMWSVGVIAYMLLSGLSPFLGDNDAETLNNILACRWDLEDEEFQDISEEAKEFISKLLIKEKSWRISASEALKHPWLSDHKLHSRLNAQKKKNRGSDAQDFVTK
Description: HotSpot radiometric kinase assay at […] (Km ATP), follow-up of KinomeScan binding. Format: biochemical. Conditions: read-out: Rucaparib.

Assay [2] addresses T2, PIM1 (Homo sapiens, UniProt P11309). Description: KinomeScan active site-directed competition binding at […]; […] catalytic inhibition at […] (n = […]).
The target of assay [3] is T3, CDK16 (Homo sapiens, UniProt Q00536).
T3 construct: with cyclin Y
Description: biochemical. Set-up: Reaction Biology HotSpot radiometric 33P-ATP catalytic assay at Km ATP; percent inhibition versus DMSO, mean n=2. Conditions: Km ATP. An excerpt:
(§1) Unreacted phosphate is removed via washing the filters.

For assay [4], the target named is CDK4-cyclinD3 (Homo sapiens, UniProt P11802). Description: biochemical. Set-up: Reaction Biology HotSpot radiometric 33P-ATP catalytic assay at Km ATP; percent inhibition versus DMSO, mean n=2. Conditions: Km ATP.
Description: as §1

Assay [5] concerns the target T4, TSSK3 (Homo sapiens, UniProt Q96PN8).
T4 sequence (Q96PN8 1-268): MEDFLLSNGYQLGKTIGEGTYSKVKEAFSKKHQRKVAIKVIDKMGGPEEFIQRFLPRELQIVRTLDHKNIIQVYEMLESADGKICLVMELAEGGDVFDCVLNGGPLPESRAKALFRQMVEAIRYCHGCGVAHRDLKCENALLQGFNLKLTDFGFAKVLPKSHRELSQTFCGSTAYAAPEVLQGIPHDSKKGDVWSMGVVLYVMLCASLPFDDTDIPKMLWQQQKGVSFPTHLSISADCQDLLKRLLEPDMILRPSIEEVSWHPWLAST
Description: biochemical. Further details: Reaction Biology HotSpot radiometric 33P-ATP catalytic assay at Km ATP; percent inhibition versus DMSO, mean n=2. Conditions: Km ATP.
Description: as §1

Assay [6] has as its target FLT3(ITD) (Homo sapiens, UniProt P36888). In words: biochemical. Further details: DiscoveRx KINOMEscan active site-directed competition binding; percent of control kinase bound to immobilised ligand. Conditions: binding competition, % of control.
The target in assay [7] is T2, PIM1. Description: biochemical. Set-up: Reaction Biology HotSpot radiometric 33P-ATP catalytic assay at Km ATP; percent inhibition versus DMSO, mean n=2. Conditions: Km ATP.
Description: as §1

In assay [8] the target is HIPK1 (Homo sapiens, UniProt Q86Z02). In words: biochemical. Conditions: read-out: Niraparib.
The target in assay [9] is T5, Aurora B (Homo sapiens, UniProt Q96GD4).
T5 construct: gene AURKB
Description: biochemical. Conditions: read-out: Niraparib.

Assay [10] deals with DYRK1B (Homo sapiens, UniProt Q9Y463). Description: biochemical. Conditions: read-out: % inhibition.

In the case of `CNCc1ccc(-c2[nH]c3cc(F)cc4c3c2CCNC4=O)cc1` [Rucaparib], the inhibition at 1 µM in assay [1] was 36%; in assay [3], 82%; in [4] it was 10%; in [5], -1%. In addition, the “KinomeScan active site-directed competition binding at 10 μM; 27% catalytic inhi” value in [2] was “recover most of the previously known off-targets of rucaparib, including the most potent known interactions with PIM1 and DYRK1A”. In addition, in [6], the “Rucaparib / %Ctrl @ 10000nM” value was determined as 41%.

Take `NC(=O)c1cccc2cn(-c3ccc([C@@H]4CCCNC4)cc3)nc12` [Niraparib]: the inhibition at 1 µM in assay [7] amounted to 22%; in assay [8], 40%; in assay [9] it was 34%; in assay [10], 82%.

The values above are taken from paper PMC7026418, “The kinase polypharmacology landscape of clinical PARP inhibitors” (Scientific Reports, 2020).
